Measurements published in ChEMBL document CHEMBL1201862, “PubChem BioAssay data set” (2004).
Calls of active or inactive are those of the source. Cut-off read from the data, not from the text of the source, for most assays here: actives have a measured EC50 and inactives only a lower limit.

What was measured:
Streptococcus = test: Group A Streptococcus viability loss, dose response, counter-screen for streptokinase expression inhibitor project, luminescence, BacTiterGlo (AID 1915); type: functional, organism-based;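 note: potency for reduction of bacterial viability or growth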
[1] = system: Streptococcus sp. 'group A'; test: growth inhibition of control SK(-) GAS strain, dose response, counter-screen for streptokinase expression inhibitor project, luminescence, kanamycin, BacTiterGlo, confirmation (AID 1900); type: functional, organism-based
Streptokinase A = biological target: T1, Streptokinase A (Streptococcus pyogenes serotype M1, UniProt P10520); test: S. pyogenes streptokinase expression inhibitors, potency, dose response, plasminogen activation absorbance, OD405 (AID 1914); type: functional, Streptococcus pyogenes M1 GAS;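 note: secreted streptokinase activity via plasminogen activation per viability signal from cell pellet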
T1 sequence (P10520 whole entry): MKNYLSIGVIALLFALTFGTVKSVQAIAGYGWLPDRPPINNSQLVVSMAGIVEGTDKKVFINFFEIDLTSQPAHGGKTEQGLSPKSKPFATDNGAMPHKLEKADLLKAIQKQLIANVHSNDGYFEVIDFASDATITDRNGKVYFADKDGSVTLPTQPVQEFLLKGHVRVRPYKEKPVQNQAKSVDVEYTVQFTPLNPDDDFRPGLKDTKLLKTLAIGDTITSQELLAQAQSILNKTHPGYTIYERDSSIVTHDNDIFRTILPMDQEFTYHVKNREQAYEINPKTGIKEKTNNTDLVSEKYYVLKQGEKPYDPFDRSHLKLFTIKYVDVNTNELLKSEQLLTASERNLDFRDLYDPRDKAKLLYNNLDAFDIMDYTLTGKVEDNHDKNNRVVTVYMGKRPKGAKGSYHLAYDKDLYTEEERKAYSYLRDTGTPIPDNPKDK

[2] = inhibitors of intracellular T. cruzi replication, confirmation, NIH3T3 host cells, beta-gal luminescence (AID 2044); type: functional, cell-based;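 note: intracellular parasites grown in NIH/3T3 mouse fibroblasts as host cells; luminescent beta-galactosidase reporter signal from transgenic T. cruzi replicating inside host cells; inhibitors lower the luminescence signal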
[3] = cytotoxicity toward NIH3T3 fibroblasts, dose response, counter-screen, cell-based, ATP luminescence, mouse fibroblasts (AID 2010); type: functional;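 note: cells exposed to compound for about 90 hours before reading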
[4] = Luminescence Cell-Based Dose Retest to Confirm Inhibitors of Cancer Stem Cells. [Related pubchem assays (depositor defined):AID2717, AID2721]; type: functional; details: Homo sapiens
[5] = biological target: T2, Heat shock factor protein 1 (Mus musculus, UniProt P38532); test: inhibition of MG132-induced HSE-luciferase signal, confirmation, cell-based, NIH3T3, luminescence, dose retest (AID 2382); type: functional;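 note: NIH3T3 fibroblasts with HSF1-driven luciferase reporter stressed by proteasome inhibitor MG132; luminescence from HSF1-driven luciferase expression after 8 hours of MG132 stress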
T2 sequence (P38532 whole entry): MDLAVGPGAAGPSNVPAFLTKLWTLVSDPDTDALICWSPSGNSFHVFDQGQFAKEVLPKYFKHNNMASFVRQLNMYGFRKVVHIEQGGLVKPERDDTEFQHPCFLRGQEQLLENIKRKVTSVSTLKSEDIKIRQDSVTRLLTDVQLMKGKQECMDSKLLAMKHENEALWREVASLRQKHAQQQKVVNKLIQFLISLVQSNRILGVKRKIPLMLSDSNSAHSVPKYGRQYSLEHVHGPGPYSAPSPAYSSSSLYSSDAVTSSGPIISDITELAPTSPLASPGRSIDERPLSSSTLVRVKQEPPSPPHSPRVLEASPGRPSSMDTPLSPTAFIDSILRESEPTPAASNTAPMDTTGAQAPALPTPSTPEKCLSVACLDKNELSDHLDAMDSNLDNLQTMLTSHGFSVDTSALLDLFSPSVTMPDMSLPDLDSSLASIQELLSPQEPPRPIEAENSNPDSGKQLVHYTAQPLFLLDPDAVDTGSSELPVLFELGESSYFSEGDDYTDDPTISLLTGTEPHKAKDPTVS

[6] = HEp-2 cell cytotoxicity, dose response, cytotoxicity control for RSV inhibitor project, HTS (AID 2410); type: functional; details: human respiratory syncytial virus
[7] = biological target: T2, Heat shock factor protein 1; test: HSF1 potentiators in luciferase reporter cells, confirmation, cell-based, NIH3T3, luminescence, dose retest (AID 435004); type: functional;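 note: stress induced by proteasome inhibitor MG132 added 30 min after compound; luciferase reporter driven by HSF1 response element in NIH3T3 cells; actives raise luminescence as potentiators of the MG132 stress response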
Cytochrome P450 1A2 = biological target: T3, Cytochrome P450 1A2 (Homo sapiens, UniProt P05177);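 note: PubChem cytochrome P450 panel assay, CYP1A2 panel member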
T3 sequence (P05177 whole entry): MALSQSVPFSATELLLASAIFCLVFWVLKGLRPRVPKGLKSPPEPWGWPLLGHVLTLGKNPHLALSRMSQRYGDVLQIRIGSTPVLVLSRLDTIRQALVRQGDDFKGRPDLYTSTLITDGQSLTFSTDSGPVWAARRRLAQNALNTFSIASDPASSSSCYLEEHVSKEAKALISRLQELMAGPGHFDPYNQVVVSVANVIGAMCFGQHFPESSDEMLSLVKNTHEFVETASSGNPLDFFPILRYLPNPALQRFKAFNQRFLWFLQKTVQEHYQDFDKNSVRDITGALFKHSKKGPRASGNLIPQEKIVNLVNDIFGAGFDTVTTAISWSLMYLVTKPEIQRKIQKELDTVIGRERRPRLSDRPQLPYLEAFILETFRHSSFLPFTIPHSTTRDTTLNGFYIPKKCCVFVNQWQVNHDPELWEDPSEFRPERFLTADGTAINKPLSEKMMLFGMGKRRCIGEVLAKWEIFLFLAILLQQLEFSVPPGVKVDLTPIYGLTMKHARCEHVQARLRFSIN

Cc1ccc(Oc2ccc3c(c2)C(=O)N(c2cccc4cccnc24)C3=O)cc1
EC50 (Streptococcus): > 150 µM (not active)
EC50 [1]: 25.6 µM (active)
EC50 (Streptokinase A): 25.3 µM (active)

O=C(Nc1ccc(C(=O)NCc2ccc(F)cc2)cc1)C1=CSCCO1
EC50 (Streptococcus): > 150 µM (not active)
EC50 [1]: > 150 µM (not active)
EC50 (Streptokinase A): > 150 µM (not active)

Cc1cc(C)c(OCC(=O)N2CCN(c3ncc(C(F)(F)F)cc3Cl)CC2)c(C)c1
EC50 (Streptococcus): 23.8 µM (active)
EC50 [1]: 12.8 µM (active)
EC50 (Streptokinase A): 7.69 µM (active)

CC(C)(C)NC(=O)C1CC2CCCCC2CN1 (stereo not given)
EC50 (Streptococcus): > 150 µM (not active)
EC50 [1]: > 150 µM (not active)
EC50 (Streptokinase A): > 150 µM (not active)

CCN(CC)CCSc1nnc2c3ccccc3n(Cc3ccccc3)c2n1
EC50 [2]: 0.284 µM (active)
EC50 [3]: > 60 µM (not active)
AC50 [4]: 0.829 µM (active)

Nc1nc(CSC(=S)N2CCCCC2)nc(Nc2ccccc2)n1
EC50 [5]: > 195 µM (not active)

CSc1cccc(NS(=O)(=O)c2cc(Br)cnc2N)c1
EC50 [5]: > 195 µM (not active)

O=C(Nc1nc2ccccc2n1CCOc1ccccc1)c1ccco1
EC50 (Streptococcus): 9.64 µM (active)
EC50 [1]: 4.16 µM (active)
EC50 (Streptokinase A): > 150 µM (not active)

N#Cc1ccc(C(=O)Nc2nc(SCc3ccc(Cl)cc3)n[nH]2)cc1
EC50 (Streptococcus): > 150 µM (not active)
EC50 [1]: 1.97 µM (active)
EC50 (Streptokinase A): > 150 µM (not active)

O=C(CN1CCCC1)Nc1c2c(cc3c1CCC3)CCC2
EC50 [5]: > 195 µM (not active)

CC1(C)Cc2ccccc2-c2nnc(S)n21
CC50 [6]: 31.5 µM (active)

O=[N+]([O-])c1cc(C(F)(F)F)ccc1NCCc1c[nH]c2ccccc12
AC50 [4]: 4.48 µM (active)

COc1ccccc1NC(=O)CSc1nc2nnc(C)c-2c(N)n1-c1ccccc1Cl
CC50 [6]: 16.8 µM (active)

CCS(=O)(=O)N1Cc2ccccc2CC1C(=O)Nc1nnc(SCc2ccc(C#N)cc2)s1 (stereo not given)
EC50 (Streptococcus): 94.3 µM (active)
EC50 [1]: 16.1 µM (active)
EC50 (Streptokinase A): > 150 µM (not active)

Cc1ccc(C2=Nc3ccccc3NC(C)(c3ccc(C)o3)C2)o1 (stereo not given)
EC50 [7]: > 260 µM (inactive)

Cc1ccc(-c2nc(-c3cccnc3)sc2CC(=O)Nc2ccc3nc(C)sc3c2)cc1
EC50 [5]: > 195 µM (not active)

Cc1ccccc1C(=O)NC[C@@H]1CCCN2CCCC[C@H]12
EC50 [5]: 18.6 µM (active)

C=CCNc1cc(C)oc(=O)c1C(=O)CCC
EC50 [5]: > 195 µM (not active)

COc1cccc(-c2cc3nc4c(c(N5CCC6(CC5)OCCO6)n3n2)CCCC4)c1
AC50 [4]: 4.89 µM (active)

CC(C)Nc1nc(Oc2cccc(Cl)c2Cl)cc(C(F)(F)F)n1
EC50 (Streptococcus): 8.83 µM (active)
EC50 [1]: 6.13 µM (active)
EC50 (Streptokinase A): > 150 µM (not active)

O=C(NCC1(N2CCCCC2)CCCCC1)c1cccc(NS(=O)(=O)c2ccccc2)c1
EC50 (Streptococcus): > 150 µM (not active)
EC50 [1]: > 150 µM (not active)
EC50 (Streptokinase A): > 150 µM (not active)

CCOC(=O)C1=CN(Cc2ccc(OC)cc2)C=C(C(=O)OCC)C1c1cccs1
EC50 [7]: > 260 µM (inactive)

CCN1C(=O)C(CC(=O)Nc2ccc(OC)cc2)N(CCCN2CCN(c3ccc(F)cc3)CC2)C1=S (stereo not given)
AC50 [4]: 5.53 µM (active)

CC1CCCCN1c1nc(-c2ccncc2)nc2ccccc12 (stereo not given)
EC50 [2]: 0.576 µM (active)
EC50 [3]: > 30 µM (not active)
CC50 [6]: 44.4 µM (active)

N#Cc1cn(CCOc2ccc(F)cc2)c2ccccc12
CC50 [6]: 14.1 µM (active)

COC1CCCN(C(=O)c2ccc(OC3CCN(CCc4ccccc4)CC3)cc2)C1 (stereo not given)
EC50 [5]: > 195 µM (not active)

CCC(C)c1ccc(OCc2ccc(C(=O)O)o2)cc1 (stereo not given)
EC50 [5]: 18.7 µM (inconclusive)

Nc1ccc(S(=O)(=O)N2CCC(Cc3ccccc3)CC2)cc1
EC50 [5]: > 195 µM (not active)

COc1cccc(N=Nc2c(N)nn3c(O)cc(-c4ccccc4)nc23)c1
EC50 (Streptococcus): 31.3 µM (active)
EC50 [1]: 2.27 µM (active)
EC50 (Streptokinase A): > 150 µM (not active)

CC1CCN(CC(=O)c2cccs2)CC1
EC50 [5]: > 195 µM (not active)

O=C(Nc1ccccc1)c1ccc2c(c1)CCN2S(=O)(=O)c1ccccc1
CC50 [6]: 16 µM (active)

CN(C(=O)CN1C(=O)S/C(=C\c2ccccc2)C1=O)C1CCS(=O)(=O)C1 (stereo not given)
EC50 [5]: > 195 µM (not active)

Cc1cc(/C=C2\SC(=S)N(Cc3ccco3)C2=O)c(C)n1-c1ccccc1
EC50 [5]: 1.57 µM (active)
AC50 [4]: 2.2 µM (active)

O=C(CSC(=S)N1CCCCC1)Nc1ncc2c(n1)CCCC2=O
EC50 [5]: > 195 µM (not active)

CC(NNc1ccccc1)=C1C(=O)N(C)C(=O)N(C)C1=O
AC50 [4]: 1.81 µM (active)

O=C1c2ccccc2C(Nc2ccc3c(c2)OCCO3)N1c1ccc(Cl)cn1 (stereo not given)
EC50 [5]: > 195 µM (not active)

O=C(NNc1ccccc1)C(=O)N1CCCCC1
AC50 [4]: 1.03 µM (active)

O=S(=O)(NCCSCc1c(Cl)cccc1Cl)c1ccc2c(c1)OCCO2
EC50 (Streptococcus): 24.5 µM (active)
EC50 [1]: 11.6 µM (active)
EC50 (Streptokinase A): > 150 µM (not active)

Cc1ccc(NC(=S)Nc2cccc3ccccc23)cc1
EC50 [5]: > 195 µM (not active)

CCOC(=O)Cn1c(=O)oc2cc(S(=O)(=O)NCCC(C)C)ccc21
EC50 [5]: > 195 µM (not active)

COc1cccc(C(=O)Nc2ccc3c(C)cc(=O)oc3c2)c1
EC50 [7]: > 260 µM (inactive)

CCN(c1ccc(NC(=O)CCc2nc(O)c3c4c(sc3n2)CCCC4)cc1)C(C)C
AC50 [4]: 4.71 µM (active)

CCCC/C(C)=C/[C@@H](NP(=O)(c1ccccc1)c1ccccc1)c1ccccc1
AC50 [4]: 6.1 µM (active)

COc1ccccc1-c1cc(=O)c2c(O)ccc([N+](=O)[O-])c2o1
EC50 (Streptococcus): 10.4 µM (active)
EC50 [1]: 1.4 µM (active)
EC50 (Streptokinase A): > 150 µM (not active)

CC(C)Cc1nnc(NC(=O)CCC(=O)N2CCN(c3ccccc3)CC2)s1
EC50 (Streptococcus): > 150 µM (not active)
EC50 [1]: > 150 µM (not active)
EC50 (Streptokinase A): > 150 µM (not active)

CCCCCCSc1cccc(-c2nc3cc(C)ccn3c2NC2CCCCC2)c1
AC50 [4]: 4.23 µM (active)

CC1CCCN(C(=O)c2ccccc2OC2CCN(S(C)(=O)=O)CC2)C1 (stereo not given)
EC50 [7]: > 260 µM (inactive)

COc1cccc(-c2c(C(=O)N/N=C(\C)c3ccc(Cl)s3)nnn2-c2nonc2N)c1
EC50 [7]: 51.8 µM (active)

O=c1c(/C=N\NS(=O)(=O)c2ccccc2)coc2ccc(Cl)cc12
EC50 [5]: 44.5 µM (active)

CCOC(=O)c1cc2c(=O)n3ccccc3nc2n(CCOC)/c1=N/C(=O)c1c(-c2c(F)cccc2Cl)noc1C
CC50 [6]: 5.3 µM (active)

COc1cc(/C=N/N2CCN(Cc3ccccc3)CC2)cc(OC)c1OC(C)=O
EC50 [5]: > 195 µM (not active)

COc1ccc(S(=O)(=O)N/N=C(/C)c2ccncc2)cc1
EC50 (Streptococcus): > 150 µM (not active)
EC50 [1]: > 150 µM (not active)
EC50 (Streptokinase A): > 150 µM (not active)

CCCCC/C=C\C/C=C\C/C=C\C/C=C\CCCC(=O)Nc1ccc(O)cc1
EC50 (Streptococcus): 3.32 µM (active)
EC50 [1]: 0.827 µM (active)
AC50 (Cytochrome P450 1A2): 20 µM (inconclusive)
EC50 (Streptokinase A): > 150 µM (inconclusive)

NS(=O)(=O)c1cc2c(cc1Cl)NCNS2(=O)=O [HYDROCHLOROTHIAZIDE]
EC50 [5]: > 195 µM (not active)
